Measurements taken from patent publication US7652047B2, “Phenylamino isothiazole carboxamidines as MEK inhibitors” (Ardea Biosciences, Inc., priority 2005, dated 2010).
pIC50: −log10 of the molar value.

Target: T1, MEK1^CA (human GST-MEK1, constitutively active, Ser218Asp and Ser222Asp) (Homo sapiens, UniProt Q02750, S218D/S222D)
T1 construct: GST; made in house; host or cells: Escherichia coli
Assay: MEK1 enzymatic activity assay (MEK1^CA / ERK2 / MBP, [γ-33P]ATP incorporation)
Assay type: biochemical
Conditions: Table 1, compounds of formula I; read-out: Avg IC50
Text: Materials and preparation of reagents: Human GST-MEK1 and the constitutively active allele GST-MEK1^CA (harboring the mutations Ser218Asp and Ser222Asp) were subcloned into the […] expression vector pGEM4Z (Promega, Madison, Wis.) from the wild type human MEK1 cDNA. GST-MEK1^CA was expressed in Escherichia coli and partially purified using Glutathione Sepharose 4B affinity resin (Amersham Pharmacia Biotech, Piscataway, N.J.). The ERK2 allele was subcloned from MAPK2/Erk2 cDNA (wild type) in pUSEamp (Upstate Biotechnology, Inc., Waltham, Mass.) into the vector pET21a (Novagen, Madison, Wis.) resulting in an N-terminal histidine-tagged mouse ERK2 allele. […] Myelin basic protein (MBP) was purchased from Gibco BRL (Rockville, Md.). EasyTides adenosine 5′-triphosphate (ATP) ([γ-^33P]) (NEN Perkin Elmer, Wellesley, Mass.) was the source of radiolabel for all kinase reactions. Activated Raf-1 (truncated) and activated MAPKinase 2/ERK2 were purchased from Upstate, Inc. (Lake Placid, N.Y.). 4-20% Criterion Precast gels were purchased from Bio-Rad (Hercules, Calif.).
A typical 25-microliter assay contained 0.002 nanomoles MEK1^CA, 0.02 nanomoles ERK2, 0.25 nanomoles MBP, 0.25 nanomoles unlabeled ATP, and 0.1 μCi [γ^33P] ATP. The screening assay essentially comprised four additions. Five μl of diluted compound were dispensed to 96-well assay plates. Ten μl of 2.5× enzyme cocktail (MEK1^CA and ERK2 only) were then added to each well followed by a pre-incubation for 30 minutes at ambient temperature. […] Finally, 100 μl of 10% trichloroacetic acid (TCA) were added and incubated for 30 minutes at room temperature to halt the reaction and precipitate radiolabeled protein products. Reaction products were harvested on glass fiber 96 well filter plates prewetted with water and 1% pyrophosphate. The filter plate was then washed 5 times with water. Water was displaced by absolute ethanol and the plate was allowed to air dry for 30 minutes at room temperature. A back seal was applied manually and 40 μl of scintillation cocktail were dispensed to each well. A top seal was applied and the plate was counted in the TopCount for two seconds per well.

T1 sequence (Q02750 whole entry S218D/S222D): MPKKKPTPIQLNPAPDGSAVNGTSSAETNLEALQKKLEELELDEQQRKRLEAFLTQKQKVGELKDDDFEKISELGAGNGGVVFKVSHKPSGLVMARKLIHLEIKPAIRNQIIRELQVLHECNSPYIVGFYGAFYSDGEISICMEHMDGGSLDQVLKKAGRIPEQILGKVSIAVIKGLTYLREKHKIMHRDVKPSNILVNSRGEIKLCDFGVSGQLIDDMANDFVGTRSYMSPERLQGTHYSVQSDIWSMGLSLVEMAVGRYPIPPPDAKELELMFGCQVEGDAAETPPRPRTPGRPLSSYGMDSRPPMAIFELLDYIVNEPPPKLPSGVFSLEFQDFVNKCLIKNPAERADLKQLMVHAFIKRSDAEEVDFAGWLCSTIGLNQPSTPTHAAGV

pIC50 | SMILES
< 6.30 | CCCC1CCC(c2ccc(Nc3snc(O)c3C(=N)NCC3CCCCC3)cc2)CC1 (stereo not drawn) [compound 58]
< 6.30 | COc1ccc(Nc2snc(O)c2C(=N)NCC2CCCCC2)cc1 [compound 60]
6.30 to 7.00 | N=C(NCC1CCCCC1)c1c(O)nsc1Nc1ccc(OCc2ccccc2)cc1 [compound 61]
< 6.30 | COc1ccc(-c2ccccc2)cc1Nc1snc(O)c1C(=N)NCC1CCCCC1 [compound 62]
6.30 to 7.00 | CCC[C@H]1CC[C@H](c2ccc(Nc3s[nH]c(=O)c3C(N)=NCC(O)CO)cc2)CC1 (stereo partly drawn) [compound 63]
< 6.30 | N=C(NCC(O)CO)c1c(O)nsc1Nc1ccc(CO)cc1 (stereo not drawn) [compound 64]
< 6.30 | N=C(NCC1CCCCC1)c1c(O)nsc1Nc1cc(C(F)(F)F)cc(C(F)(F)F)c1 [compound 66]
< 6.30 | N=C(NCC(O)CO)c1c(O)nsc1Nc1cc(C(F)(F)F)cc(C(F)(F)F)c1 (stereo not drawn) [compound 67]
< 6.30 | N=C(NCc1cccc2ccccc12)c1c(O)nsc1Nc1cc(C(F)(F)F)cc(C(F)(F)F)c1 [compound 68]
< 6.30 | N=C(NCC(O)CO)c1c(O)nsc1Nc1ccccc1F (stereo not drawn) [compound 69]
6.30 to 7.00 | CC(C)c1ccc(Nc2snc(O)c2C(N)=NCC(O)CO)cc1 (stereo not drawn) [compound 70]
< 6.30 | N#Cc1cccc(Nc2snc(O)c2C(N)=NCC2CCCCC2)c1 [compound 71]
6.30 to 7.00 | N=C(NCC(O)CO)c1c(O)nsc1Nc1cccc(Br)c1 (stereo not drawn) [compound 73]
6.30 to 7.00 | N=C(NCC(O)CO)c1c(O)nsc1Nc1cccc(Cl)c1 (stereo not drawn) [compound 75]
7.00 to 9.00 | COc1ccc(Nc2snc(O)c2C(=N)NCC2CCCCC2)cn1 [compound 77]
< 6.30 | N=C(NCC(O)O)c1c(O)nsc1Nc1ccc([N+](=O)[O-])cc1 [compound 78]
< 6.30 | CC(C)c1ccc(Nc2snc(O)c2C(N)=NCC2CCCCC2)cc1 [compound 80]
< 6.30 | Cc1cccc(Nc2snc(O)c2C(=N)NCC2CCCCC2)c1 [compound 81]
6.30 to 7.00 | N=C(NCC1CCCCC1)c1c(O)nsc1Nc1cccc([N+](=O)[O-])c1 [compound 82]
6.30 to 7.00 | N=C(NCC1CCCCC1)c1c(O)nsc1Nc1cccc(Oc2ccccc2)c1 [compound 83]
6.30 to 7.00 | N=C(NCC1CCCCC1)c1c(O)nsc1Nc1ccc(Sc2ccc([N+](=O)[O-])cc2)cc1 [compound 84]
< 6.30 | N=C(NCc1cccc2ccccc12)c1c(O)nsc1Nc1ccccc1 [compound 87]
< 6.30 | N/C(=N\CC1CCCCC1)c1c(O)nsc1Nc1ccccc1C(=O)NCC1CCCCC1 [compound 88]
< 6.30 | N=C(NCC1CCCCC1)c1c(O)nsc1Nc1ccc([N+](=O)[O-])cc1O [compound 89]
< 6.30 | N=C(NCC1CCCCC1)c1c(O)nsc1NC1CCCCC1 [compound 90]
< 6.30 | N=C(NCC1CCCCC1)c1c(O)nsc1NC12CC3CC(CC(C3)C1)C2 [compound 92]

pIC50 | SMILES
< 6.30 | N=C(NCC1CCCCC1)c1c(O)nsc1Nc1ccccc1 [compound 93]
6.30 to 7.00 | CCCCc1ccc(Nc2snc(O)c2C(=N)NCC2CCCCC2)cc1 [compound 94]
< 6.30 | N=C(NCC1CCCCC1)c1c(O)nsc1Nc1ccc(OC(F)F)cc1 [compound 95]
< 6.30 | N=C(NCC1CCCCC1)c1c(O)nsc1Nc1cccc(Cl)c1Cl [compound 96]
< 6.30 | N=C(NCC1CCCCC1)c1c(O)nsc1Nc1ccc(C(F)(F)F)cc1Cl [compound 98]
< 6.30 | COC(=O)c1ccccc1Nc1snc(O)c1C(N)=NCC1CCCCC1 [compound 99]
7.00 to 9.00 | N=C(NCC1CCCCC1)c1c(O)nsc1Nc1ccc(Sc2ccccc2)cc1 [compound 100]
6.30 to 7.00 | N=C(NCC(O)CO)c1c(O)nsc1Nc1ccc(Cl)cc1 (stereo not drawn) [compound 101]
6.30 to 7.00 | N=C(NCC1CCCCC1)c1c(O)nsc1Nc1ccc(Oc2ccccc2)nc1 [compound 103]
6.30 to 7.00 | N=C(NCC1CCCCC1)c1c(O)nsc1Nc1ccc(C(=O)c2ccccc2)cc1 [compound 104]
< 6.30 | N=C(NCc1cccc2ccccc12)c1c(O)nsc1Nc1cccc(Cl)c1Cl [compound 105]
< 6.30 | Cc1ccc2cc(Nc3snc(O)c3C(=N)NCC3CCCCC3)ccc2n1 [compound 106]
< 6.30 | Cc1cc(Nc2snc(O)c2C(=N)NCC2CCCCC2)c2ccccc2n1 [compound 107]
< 6.30 | N=C(NCC1CCCCC1)c1c(O)nsc1NCc1ccc(C(F)(F)F)cc1 [compound 108]
7.00 to 9.00 | Cc1ccc(Oc2ccc(Nc3snc(O)c3C(=N)NCC3CCCCC3)cc2)cc1 [compound 109]
6.30 to 7.00 | N=C(N)c1c(O)nsc1Nc1ccc(Oc2ccccc2)cc1 [compound 110]
< 6.30 | N=C(NCC1CCCCC1)c1c(O)nsc1Nc1ccc2c(c1)Cc1ccccc1-2 [compound 111]
< 6.30 | COCCCNc1snc(O)c1C(=N)NCCOc1ccccc1 [compound 112]
< 6.30 | N=C(NCCOc1ccccc1)c1c(O)nsc1NCC1CCCO1 (stereo not drawn) [compound 113]
< 6.30 | N=C(NCCc1ccc(O)cc1)c1c(O)nsc1NCCc1ccc(O)cc1 [compound 114]
< 6.30 | COc1ccc(CNC(=N)c2c(O)nsc2NCc2ccc(OC)cc2)cc1 [compound 115]
< 6.30 | N=C(NCC1CCCCC1)c1c(O)nsc1NC1CCc2ccccc21 (stereo not drawn) [compound 116]
< 6.30 | CC(C)Nc1snc(O)c1C(=N)NCC1CCCCC1 [compound 117]
< 6.30 | CC(Nc1snc(O)c1C(=N)NCC1CCCCC1)c1ccccc1 (stereo not drawn) [compound 118]
< 6.30 | N=C(NCC1CCCCC1)c1c(O)nsc1NCC1CC1 [compound 119]
< 6.30 | N=C(NCC1CCCCC1)c1c(O)nsc1NCCc1ccccc1 [compound 120]

pIC50 | SMILES
< 6.30 | CCCCCNc1snc(O)c1C(=N)NCC1CCCCC1 [compound 121]
< 6.30 | N=C(NCC1CCCCC1)c1c(O)nsc1Nc1ccc(N2CCCCC2)cc1 [compound 123]
6.30 to 7.00 | Cc1ccc(Oc2ccc(Nc3snc(O)c3C(=N)NCC3CCCCC3)cc2)cn1 [compound 124]
< 6.30 | N=C(NCCCO)c1c(O)nsc1NCC1CCCCC1 [compound 125]
< 6.30 | N=C(NCC1CCCCC1)c1c(O)nsc1Nc1ccc(Cl)nc1 [compound 126]
6.30 to 7.00 | N=C(NCC1CCCCC1)c1c(O)nsc1Nc1ccc(Cc2ccccc2)cc1 [compound 127]
6.30 to 7.00 | N=C(NCC1CCCCC1)c1c(O)nsc1Nc1ccc(/N=N/c2ccccc2)cc1 [compound 128]
6.30 to 7.00 | N=C(NCC(O)CO)c1c(O)nsc1Nc1ccc(Cc2ccccc2)cc1 (stereo not drawn) [compound 129]
7.00 to 9.00 | N=C(NO)c1c(O)nsc1Nc1ccc(Oc2ccccc2)cc1 [compound 130]
< 6.30 | COc1cc2c(cc1Nc1snc(O)c1C(=N)NCC1CCCCC1)oc1ccccc12 [compound 131]
< 6.30 | N=C(NCC1CCCCC1)c1c(O)nsc1Nc1ccc(N2CCOCC2)nc1 [compound 132]
< 6.30 | N=C(NCC1CCCCC1)c1c(O)nsc1Nc1ccc(/C=C/c2ccccc2)cc1 [compound 133]
< 6.30 | Cc1ccc(Oc2ccc(Nc3snc(O)c3C(=N)NCC3CCCCC3)cn2)cn1 [compound 134]
< 6.30 | Oc1nsc(Nc2ccc(Oc3ccccc3)cc2)c1-c1nnn[nH]1 [compound 136]
< 6.30 | N=C(NCC1CCCCC1)c1c(O)nsc1Nc1ccc(Oc2cncnc2)cc1 [compound 137]
6.30 to 7.00 | N=C(c1c(O)nsc1Nc1ccc(Oc2ccccc2)cc1)N(O)Cc1ccccc1 [compound 138]
6.30 to 7.00 | CN(O)C(=N)c1c(O)nsc1Nc1ccc(Oc2ccccc2)cc1 [compound 139]
7.00 to 9.00 | N=C(NCC1CCCCC1)c1c(O)nsc1Nc1ccc(Oc2ccc(Cl)cc2)cc1 [compound 140]
6.30 to 7.00 | COc1ccc(Oc2ccc(Nc3snc(O)c3C(=N)NCC3CCCCC3)cc2)cc1 [compound 141]
7.00 to 9.00 | N=C(NCC1CCCCC1)c1c(O)nsc1Nc1ccc(Oc2ccc(F)cc2)cc1 [compound 142]
7.00 to 9.00 | CC(C)(CO)CNC(=N)c1c(O)nsc1Nc1ccc(Oc2ccccc2)cc1 [compound 143]
7.00 to 9.00 | CC(C)N(O)C(=N)c1c(O)nsc1Nc1ccc(Oc2ccccc2)cc1 [compound 144]
< 6.30 | CC(=O)Nc1ccc(Oc2ccc(Nc3snc(O)c3C(=N)NCC(O)CO)cc2)cc1 (stereo not drawn) [compound 145]
< 6.30 | N=C(NCCO)c1c(O)nsc1Nc1ccc(Cc2ccccc2)cc1 [compound 146]
6.30 to 7.00 | CN(C)CCNC(=N)c1c(O)nsc1Nc1ccc(Oc2ccccc2)cc1 [compound 147]
< 6.30 | CN1CCCC1CCNC(=N)c1c(O)nsc1Nc1ccc(Oc2ccccc2)cc1 (stereo not drawn) [compound 148]
